One assay concerns the target T1, 5-HT3 receptors (Mus musculus, UniProt P23979).
T1 construct: against “steady-state” responses of N1E-115 cells to serotonin (10 μM); host or cells: N1E-115 cells
T1 sequence (P23979 24-489): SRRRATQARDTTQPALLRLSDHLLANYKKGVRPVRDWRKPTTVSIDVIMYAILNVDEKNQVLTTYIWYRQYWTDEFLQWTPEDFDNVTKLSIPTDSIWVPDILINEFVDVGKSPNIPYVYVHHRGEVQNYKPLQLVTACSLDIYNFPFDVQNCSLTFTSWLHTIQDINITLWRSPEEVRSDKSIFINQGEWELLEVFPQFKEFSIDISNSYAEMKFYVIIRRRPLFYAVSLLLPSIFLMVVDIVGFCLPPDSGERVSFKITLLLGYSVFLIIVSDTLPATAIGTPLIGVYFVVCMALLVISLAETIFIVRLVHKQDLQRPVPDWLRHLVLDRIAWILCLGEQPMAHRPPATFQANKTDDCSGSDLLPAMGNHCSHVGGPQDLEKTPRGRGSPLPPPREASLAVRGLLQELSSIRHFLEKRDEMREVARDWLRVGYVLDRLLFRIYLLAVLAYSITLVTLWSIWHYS
In words: patch clamp, antagonism of serotonin-induced inward currents in N1E-115 cells. It is filed as cell-based. Particulars: serotonin (10 μM) applied for 2 secs, read-out: 5HT3 IC50 against steady-state responses. Here is the method:
N1E-115 cells were purchased from the European collection of cell cultures (ECACC, Salisbury, UK) and stored at −80° C. until further use. The cells were plated at a density of 100,000 cells cm^−2 onto plastic Petri dishes (Falcon) and were nourished with NaHCO3/HEPES-buffered minimum essential medium (MEM) supplemented with 15% foetal calf serum (Gibco) and incubated at 37° C. with 5% CO2 at 95% humidity. The medium was exchanged completely daily. Once every three days, cells were re-seeded onto fresh Petri dishes following treatment with trypsin-EDTA (1% in PBS), resuspension in MEM, and centrifugation at 1000 for 4 mins.
Patch clamp recordings were made from lifted cells, 2-3 days following seeding with polished glass electrodes (2-3 MΩ) in the whole cell mode at room temperature (20-22° C.) with an EPC-7 amplifier (List). Test substances were applied as for hippocampal cells. The contents of the intracellular solution were as follows (mM): CsCl (130), HEPES (10), EGTA (10), MgCl2 (2), CaCl2 (2), K-ATP (2), Tris-GTP (0.2), D-Glucose (10); pH was adjusted to 7.3 with CsOH or HCl. The extracellular solutions had the following basic composition (mM): NaCl (124), KCl (2.8), HEPES (10), pH 7.3 with NaOH or HCl.
Only results from stable cells were accepted for inclusion in the final analysis, i.e., showing at least 75% recovery of responses to agonist (serotonin or Ach) following removal of the antagonist tested. Despite this, recovery from drug actions wasn't always 100% because of rundown in some cells (<=10% over 10 mins). When present, this was always compensated by basing the % antagonism at each concentration on both control and recovery and assuming a linear time course for this rundown. All antagonists were assessed at steady-state blockade with 3 to 6 concentrations on at least 5 cells. Equilibrium blockade was achieved within 2 to 5 agonist applications, depending on antagonist concentration.
FIG. 1A and FIG. 1B show concentration-dependence of the blockade of 5HT3 receptors by MRZ 2/633 in cultured N1E-115 cells. Serotonin (10 μM) was applied for 2 seconds every 30 seconds in the continuous presence of various concentrations of MRZ 2/633 (1-10 μM).
B: Peak and steady-state (plateau) serotonin current responses were normalized to control levels and plotted as means (±SEM) against MRZ 2/633 concentration (n=8). Estimation of IC50s and curve fitting were made according to the 4 parameter logistic equation (GraFit, Erithacus Software).

Assay [1] deals with T2, α7 neuronal nicotinic receptors (Rattus norvegicus, UniProt Q05941).
T2 construct: against peak responses of cultured hippocampal neurones to Ach (1 mM) applied for 2 secs; endogenous in cells; host or cells: cultured rat embryonic hippocampal neurones
Kind of assay: patch clamp, antagonism of Ach-induced inward currents in cultured hippocampal neurones. In kind it is cell-based.

For assay [2], the target named is T3, NMDA receptors.
T3 construct: other: rat cortical membranes
To be noted: rat cortical membranes, cited from earlier work.

Assay [3] has as its target T4, NMDA receptors.
T4 construct: PC NMDA (antagonism of NMDA-induced inward currents); other: at −70 mV, cultured rat hippocampal neurones; PC (PC NMDA, antagonism of NMDA-induced inward currents)
To be noted: at −70 mV, cultured rat hippocampal neurones, cited from earlier work.

[4] abbreviates: cultured hippocampal neurones, Ach (1 mM) applied for 2 secs, read-out: PC Ach IC50 against peak responses.
Where [5] appears, read: read-out: [3H]MK (displacement of [3H]MK-801 binding), Table 3.
Setting [6] is: read-out: [3H]MK- (displacement of [3H]MK-801 binding), Table 2.
Setting [7] is: Table 2, read-out: PC NMDA (antagonism of NMDA-induced inward currents).
Setting [8] is: Table 3, read-out: PC (PC NMDA, antagonism of NMDA-induced inward currents).

The structures appear in SMILES notation. Like-named read-outs stand apart in the source and are kept apart here.

T2 sequence (Q05941 23-502): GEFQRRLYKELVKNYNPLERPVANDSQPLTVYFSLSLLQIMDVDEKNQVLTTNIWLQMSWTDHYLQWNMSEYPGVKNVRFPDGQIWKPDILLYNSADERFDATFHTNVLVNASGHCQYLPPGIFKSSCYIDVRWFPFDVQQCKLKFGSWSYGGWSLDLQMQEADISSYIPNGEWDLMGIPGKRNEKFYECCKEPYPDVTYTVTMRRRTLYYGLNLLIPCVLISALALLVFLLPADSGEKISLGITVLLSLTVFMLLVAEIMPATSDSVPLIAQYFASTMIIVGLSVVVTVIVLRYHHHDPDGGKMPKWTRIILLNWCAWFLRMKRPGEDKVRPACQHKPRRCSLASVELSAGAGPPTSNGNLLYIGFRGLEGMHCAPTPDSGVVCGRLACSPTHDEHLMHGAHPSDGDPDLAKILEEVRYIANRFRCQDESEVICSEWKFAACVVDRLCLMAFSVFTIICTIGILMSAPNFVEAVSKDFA

For `CCC1(C)CC(C)(C)CC(C)(N)C1` (mixture of isomers) [MRZ 2/615, 1-Amino-1,3,5,5-tetramethyl-3-ethylcyclohexane (mixture of diastereomers)], the IC50 at 5-HT3 receptors was 2.5 µM; in assay [1] (setting [4]), 2.21 µM; at NMDA receptors [3] (setting [7]) it was 1.3 µM; at NMDA receptors [3] (setting [8]), 2.9 µM. In addition, the Ki at NMDA receptors [2] (setting [5]) and at NMDA receptors [2] (setting [6]) was 2.29 µM throughout.
As to `CC1CC(C)CC(C)(N)C1` (mixture of isomers) [MRZ 2/616, 1-Amino-1,3,5-trimethylcyclohexane (mixture of diastereomers)], the IC50 is 38.7 µM on 5-HT3 receptors, 3.4 µM in assay [1] (setting [4]), 33.2 µM on NMDA receptors [3] (setting [7]) and 33.2 µM at NMDA receptors [3] (setting [8]). Further, in assay [1] (hippocampal neurones), the “α7 neuronal nicotinic antagonism (in words)” value was “much more potent in this regard than previously reported for NMDA receptors”. Further, the Ki is 9.94 µM at NMDA receptors [2] (setting [5]) and 10.4 µM at NMDA receptors [2] (setting [6]).
Turning to `CCCC1(C)CCCC(C)(N)C1` (mixture of isomers) [MRZ 2/617, 1-Amino-1,3-dimethyl-3-propylcyclohexane (mixture of diastereomers)], the values for the IC50 (in assay [1] (setting [4]); on NMDA receptors [3] (setting [8])) were 1.16 µM and 63.9 µM, respectively. Besides, on NMDA receptors [2] (setting [5]), the Ki is 36.1 µM.
For `C[C@@H]1CC(C)(C)C[C@@](C)(N)C1` (relative stereo) [MRZ 2/607, 1-Amino-1,3,3,5(trans)-tetramethylcyclohexane (axial amino group)], the values for the IC50 at 5-HT3 receptors and on NMDA receptors [3] (setting [7]) were 22.3 µM and 13.8 µM, respectively. In addition, the Ki on NMDA receptors [2] (setting [6]) was 7.7 µM.
As for `C[C@H]1CCC[C@](C)(N)C1` (relative stereo) [MRZ 2/625, 1-Amino-1,3(trans)-dimethylcyclohexane], the IC50 in assay [1] (setting [4]) was 3.29 µM; at NMDA receptors [3] (setting [8]) it was 245 µM. Besides, the Ki on NMDA receptors [2] (setting [5]) is 49 µM.
Take `CCC[C@H]1CCC[C@](C)(N)C1` (relative stereo) [MRZ 2/627, 1-Amino-1-methyl-3(trans)propylcyclohexane]: the results for the IC50 (in assay [1] (setting [4]); at NMDA receptors [3] (setting [8])) were 2.6 µM and 150 µM, respectively. Further, the Ki at NMDA receptors [2] (setting [5]) is 67.3 µM.
For the molecule `CC[C@H]1CCC[C@](C)(N)C1` (relative stereo) [MRZ 2/629, 1-Amino-1-methyl-3(trans)ethylcyclohexane], the figures for the IC50 (in assay [1] (setting [4]); on NMDA receptors [3] (setting [8])) were 2.05 µM and 219 µM, respectively. Further, at NMDA receptors [2] (setting [5]), the Ki was 46.7 µM.
In the case of `CC[C@@H]1CC(C)(C)C[C@](C)(N)C1` (relative stereo) [MRZ 2/632, 1-Amino-1,3,3-trimethyl-5(cis)ethylcyclohexane], the IC50 was 2.4 µM on 5-HT3 receptors and 6.4 µM on NMDA receptors [3] (setting [7]). Moreover, the Ki at NMDA receptors [2] (setting [6]) was 2.8 µM.
As to `CC[C@@H]1CC(C)(C)C[C@@](C)(N)C1` (relative stereo) [MRZ 2/633, 1-Amino-1,3,3-trimethyl-5(trans)ethylcyclohexane], the IC50 at 5-HT3 receptors was 7.7 µM; at NMDA receptors [3] (setting [7]), 13.9 µM. On NMDA receptors [2] (setting [6]), the Ki was 4.7 µM.
Consider `CC1(C)CC(C)(C)CC(C)(N)C1` [MRZ 2/579, 1-Amino-1,3,3,5,5-pentamethylcyclohexane], for which the IC50 is 1.7 µM at 5-HT3 receptors, 30 µM in assay [1] (setting [4]), 1.3 µM at NMDA receptors [3] (setting [7]) and 1.3 µM on NMDA receptors [3] (setting [8]). Also, the figures for the Ki on NMDA receptors [2] (setting [5]) and on NMDA receptors [2] (setting [6]) were 1.44 µM and 1.4 µM, respectively.
As to `CCCC1(N)CC(C)(C)CC(C)(C)C1` [MRZ 2/601, 1-Amino-1-propyl-3,3,5,5-tetramethylcyclohexane], the results for the IC50 on 5-HT3 receptors and on NMDA receptors [3] (setting [7]) were 1.3 µM and 10 µM, respectively. Besides, the Ki at NMDA receptors [2] (setting [6]) is 7.7 µM.
Turning to `CCCC1(C)CC(C)CC(C)(N)C1` (stereo not drawn) [MRZ 2/618, 1-Amino-1,3(trans),5(trans)-trimethyl-3(cis)-propylcyclohexane], the IC50 in assay [1] (setting [4]) was 0.65 µM; on NMDA receptors [3] (setting [8]) it was 57.5 µM. The Ki at NMDA receptors [2] (setting [5]) was 22.8 µM.
Turning to `CCC1(C)CCCC(C)(N)C1` (centres unmarked) [MRZ 2/620, 1-Amino-1,3-dimethyl-3-ethylcyclohexane], the results for the IC50 (in assay [1] (setting [4]); at NMDA receptors [3] (setting [8])) were 2.44 µM and 99 µM, respectively. Besides, at NMDA receptors [2] (setting [5]), the Ki is 24.2 µM.
For the molecule `CC1(C)CCCC(C)(N)C1` (centres unmarked) [MRZ 2/621, 1-Amino-1,3,3-trimethylcyclohexane], the IC50 at 5-HT3 receptors was 20.3 µM; in assay [1] it was 0.65 µM; at NMDA receptors [3] (setting [7]), 92.4 µM; at NMDA receptors [3] (setting [8]) it was 92.4 µM. The Ki on NMDA receptors [2] (setting [5]) and on NMDA receptors [2] (setting [6]) was 30.6 µM throughout.
In the case of `CNC1(C)CC(C)(C)CC(C)(C)C1` [MRZ 2/640, N-methyl-1-Amino-1,3,3,5.5-pentamethylcyclohexane], the IC50 at 5-HT3 receptors is 10.8 µM; on NMDA receptors [3] (setting [7]) it was 14.6 µM. Besides, the Ki on NMDA receptors [2] (setting [6]) was 4.8 µM.
For `CC1(N)CCCCC1` [MRZ 2/641, 1-Amino-1-methylcyclohexane], the IC50 in assay [1] (setting [4]) was 2.4 µM; at NMDA receptors [3] (setting [8]), more than 100 µM. Moreover, at NMDA receptors [2] (setting [5]), the Ki was 136 µM.
As to `CN(C)C1(C)CC(C)(C)CC(C)(C)C1` [MRZ 2/642, N,N-dimethyl-1-amino-1,3,3,5,5-pentamethylcyclohexane], the IC50 at 5-HT3 receptors was 35.5 µM; in assay [1], 1 µM; on NMDA receptors [3] (setting [7]), 42.5 µM; at NMDA receptors [3] (setting [8]), 42.5 µM. Besides, the Ki on NMDA receptors [2] (setting [5]) and at NMDA receptors [2] (setting [6]) was 10.7 µM in each case.
`CC1(C)CC(C)(C)CC(C)(N2CCCC2)C1` [MRZ 2/705, N-(1,3,3,5,5-pentamethylcyclohexyl)pyrrolidine]: in assay [1] (Table 3 and FIG. 4), the “fold more effective as α7 neuronal nicotinic antagonist than as NMDA receptor antagonist” value was 16 fold. Moreover, the IC50 in assay [1] (setting [4]) was 1.3 µM; at NMDA receptors [3] (setting [8]) it was 20.8 µM. The Ki at NMDA receptors [2] (setting [5]) is 7.09 µM.

These data come from patent US20070105961A1, “1-Amino-alkylcyclohexanes as 5-HT3 and neuronal nicotinic receptor antagonists” (MERZ PHARMA GMBH & CO. KGAA, priority 2000, published 2007).
